Experimental data reported in US20100273806A1, “TETRAHYDROCYCLOPENTA[B]INDOL-3-YL CARBOXYLIC ACID DERIVATIVES USEFUL IN THE TREATMENT OF AUTOIMMUNE AND INFLAMMATORY DISORDERS” (ARENA PHARMACEUTICALS, INC., priority 2007, published 2010).

Columns and labels:
S1P3 receptor = S1P3 receptor (Homo sapiens, UniProt Q99500); details: due to its agonism of the S1P3 receptor; cited from earlier work
[1] = system: patients with multiple sclerosis; details: Phase II, relapsing-remitting multiple sclerosis; cited from earlier work
[2] = system: experimental autoimmune uveoretinitis; details: short-term high dose; cited from earlier work
mice = details: oral administration to mice; cited from earlier work
C57BL/6 mice = details: prophylactic oral administration, 1 mg/kg, three times a week; cited from earlier work
Female C57BL/6 mice = experiment: MOG-induced EAE in mice; format: in vivo, mouse; details: 30 mg/kg orally once a day from day 3 until day 21, compared with vehicle; FIG. 5
Description: (§1) Animals: Female C57BL/6 mice (8 to 10 weeks of age at start of study) (Jackson Laboratory, Bar Harbor, Me.) were housed four per cage and maintained in a humidity- (40-60%) and temperature- (68-72° F.) controlled facility on a 12 h:12 h light/dark cycle (lights on at 6:30 am) with free access to food (Harlan Teklad, Orange, Calif., Rodent Diet 8604) and water. Mice were allowed one week of habituation to the animal facility before testing.
Induction of EAE: Mice were immunized subcutaneously, 50 μL per hind flank, with a total of 100 μg MOG35-55peptide emulsified 1:1 with Complete Freund's adjuvant containing 4 mg/ml heat-killed Mycobacterium tuberculosis. Mice also received 200 ng pertussis toxin intraperitoneally on the day of immunization and 48 h later.
Clinical scoring: Severity of disease symptoms was scored as follows (in increasing order of severity): 0=normal; 1=limp tail OR hind limb weakness; 2=limp tail AND limb weakness/weakness of 2 or more limbs; 3=severe limb weakness or single limb paralysis; 4=paralysis of 2 or more limbs; 5=death.
Drug treatment: Mice were dosed orally, with vehicle or test compound, once a day from day 3 until day 21. Dosing volume is 5 ml/kg. Test compound was dosed at 30 mg/kg. […] Mice were monitored daily from day 7 onward for disease symptoms. After the last dose on day 21, disease progression was monitored daily for 2 more weeks.

female NOD/Ltj mice = experiment: Cyclophosphamide induced type I diabetes in NOD mice; format: in vivo, mouse; details: 30 mg/kg orally once a day from day 0 until day 25, compared with vehicle; FIG. 6
Description: Animals: Baseline blood glucose measurements were taken from 9-10 week old female NOD/Ltj mice (Jackson Laboratory, Bar Harbor, Me.) to ensure that they were normoglycemic (blood glucose is 80-120 mg/dL) prior to initiation of the experiment. Blood glucose was measured from tail bleeds using a one touch ultra kit and test strips (LifeScan, Milpitas, Calif.).
Cyclophosphamide induction of Type I diabetes: On day 0 and day 14, normoglycemic NOD mice were injected intraperitoneally with 4 mg cyclophosphamide monohydrate (200 mg/kg) dissolved in 0.9% saline. If mice were diabetic (blood glucose is >250 mg/dL) they were not given a booster dose of cyclophosphamide on day 14.
Drug Treatment: Mice were dosed orally, with vehicle or test compound, once a day from day 0 until day 25. Compounds were suspended in 0.5% methyl cellulose vehicle using a sonicator to ensure uniform suspension. Mice were weighed twice weekly and were dosed according to weight. Dosing volume was 5 mL/kg. Test compound was dosed at 30 mg/kg. Blood glucose was measured twice weekly. After dosing was completed at day 25, the mice continued to be monitored and blood glucose measurements were taken once a week for 3 weeks.

[3] = system: C57BL/6 mice (recipients of Balbc/J skin grafts); experiment: Mouse skin allograft survival; format: in vivo; details: 3, 10 and 30 mg/kg orally once a day, compared with vehicle; FIG. 3
Description: as §1, with “BALBc/J” for “C57BL/6”, “(6” for “(8”, “7” for “10”, “water. Female C57BL/6 mice (8 to 10 weeks of age at start of study) (Jackson Laboratory, Bar Harbor, Me.) were similarly housed and maintained.” for “water.”, “testing. […]” for “testing.”
Clinical scoring: Skin allografts were inspected and digital images recorded daily until rejection, which was defined as the first day on which more than 80% of the graft is necrotic. […] In an optional related study, on posttransplantation day 5 isolated lymphocytes from peripheral lymph nodes and spleen were counted and characterized for activation markers (e.g., T-cell activation markers) by flow cytometry. Also on day 5, grafts were removed from transplanted recipients, cut into small fragments, digested with collagenase and sedimented over Ficoll-Paque (Pharmacia Biotech, Uppsala, Sweden) to isolate graft-infiltrating lymphocytes, which were counted and characterized for activation markers (e.g., T-cell activation markers) by flow cytometry. […]

Female Lewis rats = experiment: Collagen-induced arthritis in rats (ankle diameter); format: in vivo, rat; details: 3, 10 and 30 mg/kg p.o., q.d., day 0 through day 16, compared with vehicle; FIG. 4
Description: Female Lewis rats were used in this study. Acclimated animals were anesthetized with isoflurane and given the first collagen injection (day 0). On day 6, they were anesthetized again for the second collagen injection. Collagen was prepared by making a 4 mg/mL solution in 0.01 N acetic acid. Equal volumes of collagen and incomplete Freund's adjuvant were emulsified by hand mixing until a bead of this material held its form when placed in water. Each animal received 300 μL of the mixture each time, spread over 3 subcutaneous sites on the back.
Treatment (p.o., q.d., 5 mL/kg dosing volume) began on day 0 and continued through day 16 with vehicle or compounds given at 24 h intervals. Rats were weighed on days 0, 3, 6 and 9 through 17 and caliper measurements of the ankles taken on days 9 through 17. The 2nd enantiomer of Compound 7 (isolated after resolution of compound 7 by HPLC, with a retention time of 24 min per the conditions reported in Example 1.22) was dosed at 3, 10 and 30 mg/kg.

Sequence of S1P3 receptor (Q99500 whole entry): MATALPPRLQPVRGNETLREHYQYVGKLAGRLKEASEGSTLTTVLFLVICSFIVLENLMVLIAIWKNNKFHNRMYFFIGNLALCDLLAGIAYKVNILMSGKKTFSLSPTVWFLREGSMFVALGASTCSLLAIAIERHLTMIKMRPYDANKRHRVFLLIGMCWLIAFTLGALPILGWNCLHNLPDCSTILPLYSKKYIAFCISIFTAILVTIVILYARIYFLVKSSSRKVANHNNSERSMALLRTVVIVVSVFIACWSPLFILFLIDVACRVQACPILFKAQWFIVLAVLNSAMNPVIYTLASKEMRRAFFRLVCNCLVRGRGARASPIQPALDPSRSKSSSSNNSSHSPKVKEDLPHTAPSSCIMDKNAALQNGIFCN

For `CCCCCCCCc1ccc(CCC(N)(CO)CO)cc1` [FTY720], the “adverse event in clinical trials” value (S1P3 receptor) is listed as “transient asymptomatic bradycardia”, the “number of lesions detected by MRI and clinical disease activity” value [1] is listed as “reduce the number of lesions detected by magnetic resonance imaging (MRI) and clinical disease activity” and the ocular infiltrates [2] is listed as “rapidly reduced ocular infiltrates”. The VEGF-induced vascular permeability (mice) was “potently blocked VEGF-induced vascular permeability” and the “development of EAMG” value (C57BL/6 mice) was “completely prevented the development of experimental autoimmune myasthenia gravis (EAMG)”.
For `N#Cc1cc(OC(F)(F)F)cc(-c2nc(-c3ccc4[nH]c5c(c4c3)CCC5CC(=O)O)no2)c1` (stereo not drawn) [2nd enantiomer of Compound 7, 2-(7-(5-(3-cyano-5-(trifluoromethoxy)phenyl)-1,2,4-oxadiazol-3-yl)-1,2,3,4-tetrahydrocyclopenta[b]indol-3-yl)acetic acid], the “severity of disease symptoms in EAE” value (Female C57BL/6 mice) was “exhibited activity in the mouse EAE assay”, the “incidence of diabetes / promotion of normoglycemia” value (female NOD/Ltj mice) was “exhibited activity in the NOD mouse type I diabetes assay” and the “delay of time of rejection of the skin allograft” value [3] was “exhibited activity in the mouse skin allograft assay”. For the same molecule, the mean ankle diameter (Female Lewis rats) was “exhibited activity for reducing mean ankle diameter in the rat”.
